According to patent publication US20130338220A1, “COMPOSITIONS, DOSAGES, AND METHODS OF USING TETRAHYDROCANNABINOL DERIVATIVES” (priority 2010, published 2013):

Key:
[1] = single ascending dose study of immediate release ajulemic acid, adverse events; type: in vivo, human
Description: FIG. 1 is a graph of the dose proportionality of Cmax and AUC0-24 in a single dose study in human subjects of immediate release ajulemic acid.
(§1) Administration of immediate release formulations of the THC derivative ajulemic acid may result in adverse events. Representative pharmacokinetic data for administration of ajulemic acid in immediate release form is shown in FIG. 1 (single ascending dose) and 2 (multiple ascending dose). The data in FIG. 2 are based on greater sampling days 1 and 7. In the single dose study, adverse events were observed when 80 mg or higher was administered. In the multiple dose study, adverse events were observed when 40, 60, and 80 mg was administered three times a day. In the single ascending dose study in fasted subjects, the most frequently occurring adverse events were dizziness (33.3%); nausea (20.8%); vomiting (14.6%); pallor (12.5%); dry mouth; headache; somnolence; tremor; and disorientation (10.4%). Other adverse events include tachycardia, fatigue, feeling drunk, paraesthesia, and euphoric mood (6.3%); and muscle spasms, muscle tightness, disturbance in attention, deja vu, and altered mood (4.2%). In the multiple ascending dose study, the most frequently occurring adverse events were dizziness (38.9%); nausea and somnolence (16.7%); and dry mouth, fatigue, feeling abnormal, anorexia, inappropriate affect, and orthostatic hypotension (11.1%).

[2] = multiple ascending dose study of immediate release ajulemic acid three times a day, adverse events; type: in vivo, human
Method: FIG. 2 is a graph of the concentration of ajulemic acid as a function of time in a multiple ascending dose study in human subjects of ajulemic acid administered in an immediate release formulation three times a day (6-6-12 hours). For the 80<=60 mg data, the first four doses were 80 mg and all remaining doses were 60 mg.
as §1

[3] = single ascending dose, fasted subjects

Compound: CCCCCCC(C)(C)c1cc(O)c2c(c1)OC(C)(C)[C@@H]1CC=C(C(=O)O)C[C@@H]21 [ajulemic acid, (6aR,10aR)-3-(1,1-dimethylheptyl)-Δ8-tetrahydro-cannabinol-9-carboxylic acid]
- adverse event frequency: altered mood [1, 3]: 4.2%
- adverse event frequency: deja vu [1, 3]: 4.2%
- adverse event frequency: disorientation [1, 3]: 10.4%
- adverse event frequency: disturbance in attention [1, 3]: 4.2%
- adverse event frequency: dizziness [1, 3]: 33.3%
- adverse event frequency: dry mouth [1, 3]: 10.4%
- adverse event frequency: euphoric mood [1, 3]: 6.3%
- adverse event frequency: fatigue [1, 3]: 6.3%
- adverse event frequency: feeling drunk [1, 3]: 6.3%
- adverse event frequency: headache [1, 3]: 10.4%
- adverse event frequency: muscle spasms [1, 3]: 4.2%
- adverse event frequency: muscle tightness [1, 3]: 4.2%
- adverse event frequency: nausea [1, 3]: 20.8%
- adverse event frequency: pallor [1, 3]: 12.5%
- adverse event frequency: paraesthesia [1, 3]: 6.3%
- adverse event frequency: somnolence [1, 3]: 10.4%
- adverse event frequency: tachycardia [1, 3]: 6.3%
- adverse event frequency: tremor [1, 3]: 10.4%
- adverse event frequency: vomiting [1, 3]: 14.6%
- dose at which adverse events were observed ([1]; single dose study): ≥ 80 mg
- adverse event frequency: anorexia [2]: 11.1%
- adverse event frequency: dizziness [2]: 38.9%
- adverse event frequency: dry mouth [2]: 11.1%
- adverse event frequency: fatigue [2]: 11.1%
- adverse event frequency: feeling abnormal [2]: 11.1%
- adverse event frequency: inappropriate affect [2]: 11.1%
- adverse event frequency: nausea [2]: 16.7%
- adverse event frequency: orthostatic hypotension [2]: 11.1%
- adverse event frequency: somnolence [2]: 16.7%
